These are literature values, as cited in US9316644B2, “Method for establishing the sensitivity of tumours to capecitabin and test kit” (SANOXSYS GMBH, priority 2006, dated 2016).

Like-named read-outs stand apart in the source and are kept apart here.

In data set [1] the test system is metastatic mamma carcinomas. As to conditions: for median reaction duration: in vivo; for ORR (overall response): second line after anthracycline failure.
For data set [2], the system named is metastatic mamma carcinomas.
Data set [3] deals with metastatic mamma carcinoma.
Data set [4] has as its system progressive mamma carcinoma. The following applies: of 25 patients; continuous low-dose 5-FU.
Where [5] appears, read: 68 patients evaluable for effectivity.

With `CCCCCOC(=O)Nc1nc(=O)n(C2OC(C)C(O)C2O)cc1F` (centres unmarked) [capecitabine, Pentyl[1-(3,4-dihydroxy-5-methyl-tetrahydrofuran-2-yl)-5-fluoro-2-oxo-1H-pyrimidin-4-yl]aminomethanoat], in data set [1], the median reaction duration was 9.4 months and the “ORR (overall response)” value is 36%. Besides, in data set [2] (human, in vivo), the mean remission duration was 241 days, the median survival is on record as 384 days, the “median time until progression” value was 93 days and the “patients with stable sequence of the illness” value is 43%. The therapy-induced fatalities result in data set [2] (human, in vivo) is given as “did not occur”. In data set [2] (intend to treat evaluation, 162 patients, 2510 mg/m^2/day for 14 days, 7-day break), the objective remission rate is recorded as 20%. Besides, the tolerability entry in data set [2] (no pre-medication or primary prophylaxis necessary) is reported as “excellent tolerability profile”. For the same compound, the “patients whose pain was reduced by more than 50%” value in data set [2] (of 51 patients with pain figure above 20 mm on analogue pain scale at start) is 47%. Also, the reaction rate in data set [2] (sub-group of 42 anthracycline and paclitaxel therapy refractory patients) is reported as 29%. In addition, the combination effect entry (with CPT-11, Tomudex, Mitomycin C or Cyclophosphamide) was “additive”. For the same compound, the combination effect entry (with Paclitaxel or Docetaxel) is “supra-additive”. Further, under “with a radiation therapy”, the combination effect entry is recorded as “Synergetic effects”. Further, in data set [3] (setting [5]), the complete remission is 3% and the partial remission was 22%. In data set [3] (CTC degree 1 and 2), the diarrhea is on record as 21%; the lethargy is 18%; the nausea and vomiting is reported as 38%. Also, the “hand and foot syndrome” value in data set [3] (CTC degree 1 and 2, 1250 mg/m^2 twice a day for 14 days, 7-day break, 77 patients evaluable) is 40%. Besides, the “hand and foot toxicity” value in data set [3] (degree 3) is recorded as 14%. Further, the “stabilization of the disease” value in data set [3] (in vivo) is recorded as 47%. Further, the tumor control in data set [3] (patients with intensive previous treatment) is listed as 72%.

Turning to `CC(=O)O[C@H]1C(=O)[C@@]2(C)[C@H]([C@H](OC(=O)c3ccccc3)[C@]3(O)C[C@H](OC(=O)[C@H](O)[C@@H](NC(=O)c4ccccc4)c4ccccc4)C(C)=C1C3(C)C)[C@]1(OC(C)=O)CO[C@@H]1C[C@@H]2O` [Paclitaxel], in data set [1], the median reaction duration is given as 9.4 months and the “ORR (overall response)” value was 21%.

Turning to `O=c1[nH]cc(F)c(=O)[nH]1` [5-FU, 5-Fluorouracil], the “patients achieving an objective reaction” value in data set [4] was 8 patients.
